Entries after “also recorded” stand apart in the source; their conditions may differ.
Experiments:
Barley = assay: greenhouse pre-emergent treatment, green weight, barley (Table 2); format: in vivo; settings: 4-week-old plants
Method: (§1) (a2) Seeds of bean, carrot, flax, green pepper, tomato, spinach, barley and sorghum were sown into cultivation pots (20×20 cm) filled with sand. The cultivation pots were placed in a greenhouse, and treated prior to plant emergence with 0.1 or 0.2 kg of racemic active agent/hectare. The green weights of the 4-week-old plants were measured, and the data were compared to those observed with the untreated controls.

corn [1] = assay: open-air test on small parcels with dressed corn seeds (Table 3); format: in vivo
Method: (§2) 6 parts by weight of a 10% acetone solution of (±)-2-(propargyloxyimino)-1,7,7-trimethyl-bicyclo[2,2,1]heptane are added under stirring to a solution containing 30 parts by weight of acetone, 2.5 parts by weight of hydroxypropyl cellulose, 5 parts by weight of polyethylene glycol (molecular weight: 6000), 20 parts by weight of water and an arbitrary amount of a dyestuff having no germination-inhibiting effect.
(§3) (a1) Three cultivation pots were filled with sand, and 30 corn seeds each were sown. 10 of the seeds were not dressed (untreated controls), 10 of the seeds were dressed with a dressing agent described in Example 10 but containing no active agent (placebo), whereas the remaining 10 seeds were dressed with a dressing agent prepared according to Example 10 containing racemic active agent. The cultivation pots were placed in a greenhouse, and the temperature, light and atmospheric humidity of the greenhouse were maintained at optimum. The percentage of germinating seeds was determined, and on the 14th and 28th days after sowing the height and green weight of the emerged plants were measured. The results of the test are summarized in Table 1, in which the percentage of germination is related to the number of seeds sown, whereas the heights and green weights of the plants are given in percentages related to the untreated controls.
The procedure described in point (a) was repeated with the difference that the seeds were sown in a 10×10 m parcel, the plants were kept under observation for the whole growth season, and the crop yield was also determined. The parcel was hoed in order to remove weeds.

[2] = system: houseflies (Musca domestica); assay: insecticidal activity, protection against houseflies (Table 5); settings: in vivo
Method: (§4) The emulsifiable concentrate described in Example 8 was diluted with water to a final active agent content of 3% by weight, and an amount corresponding to 2.5 mg of racemic active agent/cm^2 of plane area of the resulting spray liquid was filled into a cylindrical flask. 20 flies, anaesthetized with carbon dioxide, were placed in the flask, the flask was covered with a Petri dish, and the effect of the active agent was observed. In the control test the same dosage of dichlorphon (O,O-dimethyl-2,2-dichlorovinyl phosphate) was applied as active agent.

Sorghum = assay: greenhouse pre-emergent treatment, green weight, sorghum (Table 2); format: in vivo; settings: 4-week-old plants
Method: as §1

Flax = assay: greenhouse pre-emergent treatment, green weight, flax (Table 2); format: in vivo; settings: 4-week-old plants
Method: as §1

Green pepper = assay: greenhouse pre-emergent treatment, green weight, green pepper (Table 2); format: in vivo; settings: 4-week-old plants
Method: as §1

[3] = acute oral toxicity (LD50) on white rats; settings: rat, in vivo; white rats, oral administration
Text: (§5) Therefore, the new compound of the formula (I) can be utilized to advantage as insecticidal agent for controlling granarial insect pests and insects attacking ornamental plants, indoor plants and vegetables.

[4] = system: dried bean beetle (Acanthoscelides obtectus); assay: protection against dried bean beetle on treated bean seeds (Table 8); format: in vivo
Method: (b) 100 g of bean seeds each were treated with a spray liquid containing 1.0% by weight of racemic active agent (prepared by diluting an emulsifiable concentrate containing 50% by weight of active agent) in an amount corresponding to 250, 500 and 1000 ppm of active agent, respectively. The control seeds were not treated. The seeds were put into small cylindrical flasks. 20 insects each were placed in the flasks, and the flasks were covered with a cloth. After 14 days the survivors were counted.

Tomato = assay: greenhouse pre-emergent treatment, green weight, tomato (Table 2); format: in vivo; settings: 4-week-old plants
Method: as §1

Carrot = assay: greenhouse pre-emergent treatment, green weight, carrot (Table 2); format: in vivo; settings: 4-week-old plants
Method: as §1

corn [5] = assay: greenhouse test, plant growth promoting effect on corn from dressed seeds (Table 1); format: in vivo
Method: as §2, §3

corn [6] = assay: open-air test on small parcels, pre- or post-emergent spraying of corn (Table 4); format: in vivo; settings: for Ear yield / Green weight / Height: untreated = 100
Method: 10 parts by weight of (±)-2-(propargyloxyimino)-1,7,7-trimethyl-bicyclo[2,2,1]heptane are dissolved in 9 parts by weight of xylene, and 1 part by weight of a mixture of an anionic and a non-ionic surfactant (e.g. a 2:3 mixture of Atlox 3386 and Atlox 4851) is added to the solution. The mixture is homogenized. An emulsifiable concentrate containing 50% by weight of active agent (50 EC) is obtained, which can be diluted with water to form a spray liquid.
Corn seeds were sown in small (10×10 m) parcels, and the parcels were treated prior to or after plant emergence with an aqueous spray liquid prepared from the emulsifiable concentrate described in Example 8. The concentrate was diluted with rain water to a final active agent content of 0.02 to 0.1%, depending on the dosage applied, and 500 liters/hectare of the spray liquid were applied. The dosages examined in the pre-emergent treatments varied between […] of racemic active agent/hectare, whereas in the post-emergent treatment a dosage of 1 kg of racemic active agent/hectare was applied. The parcels were hoed in order to remove weeds.

Bean = assay: greenhouse pre-emergent treatment, green weight, bean (Table 2); format: in vivo; settings: 4-week-old plants
Method: as §1

[7] = system: housefly (Musca domestica) larvae; assay: insecticidal activity, protection against housefly larvae (Table 6); format: in vivo; settings: for Development: in relation to the control
Method: 1 kg of wheat barn was admixed with 1 liter of milk, 10 g of fodder yeast and 6 g of Nipagin (ethyl p-hydroxybenzoate) to obtain a culture medium for the cultivation of housefly larvae. 200 g each of the above culture medium were put into small cylindrical flasks, and racemic active agent was added so that the active agent content of the culture medium was 250, 500 and 1000 ppm, respectively. The racemic active agent was introduced in the form of an emulsifiable concentrate containing 50% by weight of the compound concerned, and the culture medium was homogenized with the concentrate. No active agent was introduced into the control flask. 50 one-day-old housefly larvae each were placed in the cylindrical flasks, the flasks were covered with a cloth ensuring good ventilation, and the percentage of images developing from the pupae was determined in relation to the control.

Spinach = assay: greenhouse pre-emergent treatment, green weight, spinach (Table 2); format: in vivo; settings: 0.1 kg/ha, 4-week-old plants
Method: as §1

cholinesterase = cholinesterase blocking effect; format: biochemical
[8] = system: dried bean beetle (Acanthoscelides obtectus); assay: protection against dried bean beetle, procedure of Example 13(a) (Table 7); format: in vivo; settings: compared with dichlorphon
Method: as §4
Protection against dried bean beetle (Acanthoscelides obtectus)

white rats = assay: acute oral toxicity (LD50) on white rats; settings: rat, in vivo
Text: as §5

[9] = dressed seeds, open air, untreated control = 100
[10] = 14th day after sowing, related to untreated controls
[11] = 28th day after sowing, related to untreated controls
[12] = post-emergent, 1.0 kg of active agent/hectare
[13] = pre-emergent, 0.1 kg of active agent/hectare
[14] = pre-emergent, 1.0 kg of active agent/hectare
[15] = pre-emergent, 3.0 kg of active agent/hectare
[16] = pre-emergent, 5.0 kg of active agent/hectare

SMILES: C#CCON=C1CC2CCC1(C)C2(C)C (racemic) [racemic active agent, (±)-2-(propargyloxyimino)-1,7,7-trimethyl-bicyclo[2,2,1]heptane]
- Green weight in relation to the controls (Barley; 0.1 kg/ha): 120%
- Green weight in relation to the controls (Barley; 0.2 kg/ha): 105%
- corn higher by (in comparison with the two controls) (corn [1]; Table 3): 27%
- ear yield greater by (in comparison with the two controls) (corn [1]; Table 3): 20%
- green weight higher by (in comparison with the two controls) (corn [1]; Table 3): 25%
- Ear yield (corn [1]; [9]): 120%
- Green weight (corn [1]; [9]): 125%
- Height (corn [1]; [9]): 127%
- effect on houseflies compared with dichlorphon (in words) [2]: approximately the same effect as dichlorphon
- Green weight in relation to the controls (Sorghum; 0.1 kg/ha): 130%
- Green weight in relation to the controls (Sorghum; 0.2 kg/ha): 130%
- Green weight in relation to the controls (Flax; 0.1 kg/ha): 118%
- Green weight in relation to the controls (Flax; 0.2 kg/ha): 105%
- Green weight in relation to the controls (Green pepper; 0.1 kg/ha): 95%
- Green weight in relation to the controls (Green pepper; 0.2 kg/ha): 140%
- LD50 [3]: 1400 mg/kg
- survival at 250 ppm ([4]; Acanthoscelides obtectus, 336 h, 250 ppm, after 14 days, percentage of the control, read-out: Survivors): 5%
- survival at 500 ppm ([4]; Acanthoscelides obtectus, 336 h, 500 ppm, after 14 days, percentage of the control, read-out: Survivors): 0%
- survival at 1000 ppm ([4]; Acanthoscelides obtectus, 336 h, 1000 ppm, after 14 days, percentage of the control, read-out: Survivors): 0%
- killing of granarial insect pests such as dried bean beetle (in words) ([4]; even in a concentration of 250 ppm): can be applied successfully to kill granarial insect pests
- Green weight in relation to the controls (Tomato; 0.1 kg/ha): 120%
- Green weight in relation to the controls (Tomato; 0.2 kg/ha): 112%
- Green weight in relation to the controls (Carrot; 0.1 kg/ha): 105%
- Green weight in relation to the controls (Carrot; 0.2 kg/ha): 140%
- 14th day Green weight (corn [5]; [10]): 152%
- 14th day Height (corn [5]; [10]): 143%
- 28th day Green weight (corn [5]; [11]): 154%
- 28th day Height (corn [5]; [11]): 148%
- Germination (corn [5]; dressed corn seeds, greenhouse, related to number of seeds sown): 95%
- Ear yield (corn [6]; [12]): 109%
- Green weight (corn [6]; [12]): 120%
- Height (corn [6]; [12]): 116%
- post-emergent results compared with pre-emergent, same dosage (in words) (corn [6]; post-emergent, 1 kg/hectare): slightly inferior to the former ones
- Ear yield (corn [6]; [13]): 102%
- Green weight (corn [6]; [13]): 108%
- Height (corn [6]; [13]): 105%
- effectiveness in pre-emergent treatment (in words) (corn [6]; pre-emergent, 0.1 kg/hectare): effective even in a dosage of 0.1 kg/hectare
- Ear yield (corn [6]; [14]): 118%
- Green weight (corn [6]; [14]): 127%
- Height (corn [6]; [14]): 121%
- Ear yield (corn [6]; [15]): 116%
- Green weight (corn [6]; [15]): 135%
- Height (corn [6]; [15]): 127%
- Ear yield (corn [6]; [16]): 107%
- Green weight (corn [6]; [16]): 115%
- Height (corn [6]; [16]): 115%
- Green weight in relation to the controls (Bean; 0.1 kg/ha): 110%
- Green weight in relation to the controls (Bean; 0.2 kg/ha): 135%
- Activity ([7]; 250 ppm): 70.4%
- Development ([7]; 250 ppm): 29.6%
- Activity ([7]; 500 ppm): 100.0%
- Development ([7]; 500 ppm): 0%
- Activity ([7]; 1000 ppm): 100.0%
- Development ([7]; 1000 ppm): 0%
- Green weight in relation to the controls (Spinach): 135%

SMILES: C#CCON=C1CC2CCC1(C)C2(C)C (racemic) [new compound of the formula (I), 2-(proparglyoxyimino)-1,7,7-trimethyl-bicyclo[2,2,1]heptane]
- cholinesterase blocking effect (cholinesterase): absence of cholinesterase blocking effect
- speed of effect on more resistant test insects (in words) [8]: slower on more resistant test insects
- toxicity (in words) (white rats): low toxicity; also recorded: superior to the known active agent with respect to its lower toxicity
